Series [1] deals with T1, CXCR4 (Homo sapiens, UniProt P61073).
T1 construct: expressed in transfected cells; host or cells: PC3 (human prostate cancer) cells stably transduced with CXCR4
Kind of series: Competition binding assay vs [^68Ga]Pentixafor in PC3-CXCR4 cells. The essentials: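 PC3-CXCR4 cells were incubated 60 min at 37 °C with tracer ([^68Ga]Pentixafor at 100 nM or [^18F]RPS-544 at ~5 pM) plus unlabelled ligand at eight concentrations (0.001–10,000 nM). Cell-bound activity was gamma-counted after washing. Non-specific binding was subtracted and IC50 was fitted to a sigmoidal Hill model assuming simple competition.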

For series [2], the target named is T1, CXCR4. Nature of the series: Saturation binding assay in PC3-CXCR4 cells. Put shortly:
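PC3 cells expressing CXCR4 incubated with ~5 nM radioligand plus matching unlabelled ligand at eight final concentrations, 0.001–10,000 nM, in triplicate, then washed and counted. Kd from a one-site nonlinear fit, y = (Bmax · x)/(Kd + x), after non-specific binding subtraction; reported ± SD.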

Series [3] deals with PC3-CXCR4 cells. Kind of series: Cell-associated activity in PC3-CXCR4 cells. The series is classed as cell-based, human. Conditions: 1 h. As to the method:
Maximum cell-associated activity was calculated by subtracting the cell uptake of the radioactive ligand at the highest non-radioactive ligand concentration of 10 µM (which we considered to be non-specific uptake/binding) from the cell uptake at the lowest non-radioactive ligand concentration of 10^−5 µM.

Series [4] has as its system PC3-CXCR4 xenograft tumors. Nature of the series: µPET/CT titration of tumor uptake by co-injection of AMD-3100 (block50). It counts as in vivo, BALB/c mice. As to conditions: co-injection of AMD-3100, µPET/CT 1 h p.i.; listed as [^18F]RPS-544. As for the experimental part: All animal studies were approved by the Institutional Animal Care and Use Committee of Weill Cornell Medicine (Protocol Number: 2015-0066) and were undertaken in accordance with the guidelines set forth by the USPHS Policy on Humane Care and Use of Laboratory Animals. Animals were housed under standard conditions in approved facilities with 12 h light/dark cycles. Food and water was provided ad libitum throughout the course of the studies. Hairless 6-to-8-week old male BALB/c inbred athymic nude mice (Jackson Laboratory, Bar Harbor, ME, USA) were inoculated bilaterally with 0.2 mL of a 1:1 mixture of 10^7 PC3-CXCR4 cells in PBS and Matrigel (Corning, Tewksbury, MA, USA) subcutaneously in the left shoulder and 0.2 mL of a 1:1 mixture of 10^7 PC3-WT cells in PBS and Matrigel subcutaneously in the right shoulder. […]
For the imaging studies, the tumor-bearing mice (n = 2/compound) were injected intravenously with 100 μL of a 9% v/v EtOH/saline solution containing approximately 3.7 MBq of the radioligand. […] Tumor uptake was quantified by the following procedure: CT-aided regions of interest were drawn, and tissue concentration was determined by comparison with a 3 %ID/cm^3 standard included in the field of view. Uptake was expressed as percent injected dose per centimeter cubed (%ID/cm^3) ± standard deviation.

Series [5] concerns PC3-CXCR4 xenograft tumors. More on the design: method as in PMID 29544122. As to conditions: cited from earlier work.

Read-outs that look alike come from different tables or passages of the source.

A word on the IC50: it is the concentration that inhibits the measured activity by half. What is called Kd is the free concentration of one partner at which half of the binding sites on the other are occupied at equilibrium, for simple one-to-one binding.

T1 sequence (P61073 whole entry): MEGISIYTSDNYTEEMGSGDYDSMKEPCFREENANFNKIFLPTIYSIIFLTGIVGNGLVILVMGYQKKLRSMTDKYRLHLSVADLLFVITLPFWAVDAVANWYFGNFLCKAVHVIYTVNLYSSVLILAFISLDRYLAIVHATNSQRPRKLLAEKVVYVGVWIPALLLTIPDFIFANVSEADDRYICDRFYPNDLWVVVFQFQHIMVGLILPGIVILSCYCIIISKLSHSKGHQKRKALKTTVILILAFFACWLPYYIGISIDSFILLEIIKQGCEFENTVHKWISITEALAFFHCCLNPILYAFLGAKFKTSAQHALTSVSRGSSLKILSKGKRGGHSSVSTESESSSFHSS

`Fc1cccc(CNCc2ccc(CN3CCCNCCNCCCNCC3)cc2)n1` [RPS-544]: the half-inhibitory concentration (IC50) in series [1] (vs 100 nM [^68Ga]Pentixafor, PC3-CXCR4 cells, 60 min 37 °C) was determined as 6.3 ± 0.8 nM. For the same compound, the “Hill Slope, Competitive Binding Experiment” value in series [1] (vs [^68Ga]Pentixafor, value ± SD) amounted to 1.13 ± 0.47. The dissociation constant Kd in series [2] (saturation binding, PC3-CXCR4 cells) came to 5.1 ± 1 nM. Besides, in series [2] (value ± SD), the “Hill Slope, Saturation Binding Experiment” value is recorded as 1.06 ± 0.11. In addition, in series [3], the “Cell-Associated Activity” value was found to be 8.2 ± 0.3 %IA. Further, in series [4], the “Block50: dose of AMD-3100 reducing uptake in PC3-CXCR4 tumors by 50%” value stood at 0.17 ± 0.06 mg/kg. For the same compound, in series [5] (1 h p.i.), the “PC3-CXCR4 Tumor-to-Tissue Ratio Blood” value is 2.5 ± 0.4, the “PC3-CXCR4 Tumor-to-Tissue Ratio Bone” value is 4.2 ± 1.2, the “PC3-CXCR4 Tumor-to-Tissue Ratio Kidneys” value is recorded as 0.1 ± 0.1 and the “PC3-CXCR4 Tumor-to-Tissue Ratio Liver” value is reported as 0.1 ± 0.1. In addition, in series [5] (1 h p.i.), the “PC3-CXCR4 Tumor-to-Tissue Ratio Lungs” value is given as 2.0 ± 1.2, the “PC3-CXCR4 Tumor-to-Tissue Ratio Muscle” value is listed as 11.1 ± 0.4 and the “PC3-CXCR4 Tumor-to-Tissue Ratio PC3-WT” value was 3.3 ± 1.3. In series [5] (1 h p.i., previously published data), the “PC3-CXCR4 Tumor Uptake” value is given as 3.4 ± 1.2 %ID/g. For the same compound, in series [5] (2 h p.i.), the “PC3-CXCR4 Tumor-to-Tissue Ratio Blood” value is recorded as 4.8 ± 0.1, the “PC3-CXCR4 Tumor-to-Tissue Ratio Bone” value is recorded as 2.9 ± 0.3, the “PC3-CXCR4 Tumor-to-Tissue Ratio Kidneys” value was 0.1 ± 0.1 and the “PC3-CXCR4 Tumor-to-Tissue Ratio Liver” value is 0.1 ± 0.1. In series [5] (2 h p.i.), the “PC3-CXCR4 Tumor-to-Tissue Ratio Lungs” value was 1.7 ± 0.3, the “PC3-CXCR4 Tumor-to-Tissue Ratio Muscle” value was 6.7 ± 0.2 and the “PC3-CXCR4 Tumor-to-Tissue Ratio PC3-WT” value is listed as 2.6 ± 0.3.

The values are drawn from PMC6514812, “[^18F]Fluoroethyltriazolyl Monocyclam Derivatives as Imaging Probes for the Chemokine Receptor CXCR4” (Molecules, 2019).
